Reference: US9476099B2 (TRUSTEES OF DARTMOUTH COLLEGE, priority 2012, dated 2016)

System: gene promoters in NT2/D1-R1 control and DNMT3B knockdown cells
Test: Genome-wide promoter methylation analysis, HumanMethylation27 BeadChip (Table 15)
Type: cell-based, human
Details: three days low-dose decitabine, control NT2/D1-R1
Procedure: DNA methylation analysis was performed in samples in triplicate using the […] […] assay with the HumanMethylation27 BeadChip ([…]) and the BeadChip was scanned on the BeadArray Reader ([…]), according to the manufacturer's instructions. Raw data was normalized and analyzed with Genome Studio software ([…]). The HumanMethylation27 BeadChip assays 27,578 CpGs covering more than 14,000 genes, mostly from promoter regions. […] Hierarchical clustering was performed as stated above. HumanMethylation27 BeadChip data and gene expression microarray data were submitted to NCBI GEO.

## Nc1ncn([C@H]2C[C@H](O)[C@@H](CO)O2)c(=O)n1 [decitabine, 5-aza-deoxycytidine]
  genes with altered promoter methylation: 388 genes
Of 388 genes
  genes with decreased levels of promoter methylation: 305 genes
